Entries after “also recorded” stand apart in the source; their conditions may differ.
Key:
[1] = test system: electrically evoked release of Glu; assay: electrically evoked [^3H]-Glu release from [^3H]-Gln-loaded hippocampus slices; format: cell-based, rat; details: 540 pulses of 4 ms, 6 Hz, 60 mA, room temperature, 100 μM PDC, added 15 min before second stimulation
[2] = test system: ischemia-induced [^3H]-Glu release; assay: in vitro ischemia model: ischemia-induced [^3H]-Glu release from [^3H]-Gln-loaded hippocampal slices; format: cell-based, rat
Description: Rat hippocampus slices 350 μm thick were incubated in 3 ml of medium at 37° C. for 60 minutes. The medium contained 2 μM [^3H]-Gln to label the endogenous Gln pool. The slices then synthesized Glu. The slices were washed and then exposed to superfusion with a buffer for 50 minutes. At 5-minute intervals, [^3H]-Glu was extracted by anion exchange chromatography from a total of 15 superfusion samples and was measured by liquid scintillation counting. The fractional rates of [^3H]-Glu release were calculated from the [^3H]-Glu extracted from the superfusion samples and from the tissue slices after the superfusion.
The model of endogenously produced [^3H]-Glu was likewise used to generate ischemic conditions in vitro. To make a slice “quasi ischemic”, oxygen and glucose were replaced by nitrogen and sucrose during the superfusion. Sucrose was used in place of […] glucose in order to maintain the osmolarity of the superfusion fluid. It is known that sucrose cannot be cleaved in vitro to glucose and fructose. Unlike the tests in which the [^3H]-Glu release was induced electrically, and in order to simulate an ischemia as well as possible, the [^3H]-Glu release was carried out during the incubation and superfusion at 37° C.
Slices of 350 μm thickness were incubated at 37° C. for 60 min in 3 ml medium containing 2 μM [^3H]-Gln in order to label endogenous Gln pools. These slices subsequently were synthesizing Glu. The slices were washed and then superfused for 50 min with buffer. [^3H]-Glu was extracted from 15 5-min-superfusion samples and from the slices by anion-exchange chromatography and measured by liquid scintillation counting. Fractional rates of [^3H]-Glu release were calculated from extracted [^3H]-Glu in the superfusion samples and in the tissue slices obtained after superfusion.
To reproduce in vitro ischemic conditions the model of endogenously formed [^3H]-Glu was also used. To make a slice “quasi-ischemic”, oxygen was replaced by nitrogen and glucose was replaced by sucrose during superfusion. Sucrose was used instead of glucose in order to maintain the osmolarity of the superfusion fluid without being cleaved into glucose and fructose in vitro. At variance to the experiments on electrically evoked [^3H]-Glu release and in order to mimic ischemia as close as possible the experiments on ischemia-induced [^3H]-Glu release were performed at 37° C. throughout incubation and superfusion.
To assess the potency of glibenclamide concentration-inhibition curves of GBP-L on ischemia-induced [^3H]-Glu efflux were obtained in the absence and presence of 0.1 μM glibenclamide (see Jehle et al. 2000).

[3] = test system: retinal gangliocytes (neurons in the ganglion cell layer); format: in vivo
Description: The following results were found:
10 rats were treated with 0.9% NaCl i.p. at the start of a unilateral one-hour intraocular pressure increase. After 6 hours, the treatment was again carried out with 0.9% NaCl i.p. After 14 days, the rats were sacrificed, and the retinal gangliocytes were investigated. Compared with the respective control eye, only 17.4% (±4%) of the retinal gangliocytes had survived.
In the test group, likewise of 10 rats, 50 mg/kg 8-azaspiro[5,4]decan-9-one was administered i.p. at the start of a unilateral one-hour intraocular pressure increase. The compound was administered again in a dose of 50 mg/kg 6 hours after the intraocular pressure increase. After 14 days, the rats were sacrificed, and the retinal gangliocytes were investigated. It emerged that, compared with the respective control eye, 35% (±7%) of the retinal gangliocytes survived.
The method in brief: Retinal ischemia in the left eye was induced by elevating the intraocular pressure above systolic blood pressure for one hour. Retinal ischemia was confirmed by whitening of the fundus. In the first experiment 10 rats received 50 mg/kg GBP intraperitoneally immediately prior to ischemia and 50 mg/kg 6 hours after reperfusion, 10 rats received 50 mg/kg GBP-L i.p. immediately prior to ischemia and 50 mg/kg 6 hours after reperfusion, and 10 rats received vehicle alone. Ischemic damage was histologically quantified 14 days after ischemia: Both eyes were enucleated and immersed in 4% buffered formaldehyde for 24 hours. Retinal wholemounts were made and stained with cresyl violet, (0.1%, pH 4.5 for 30 min). Ischemic damage was quantified by counting the number of neurons in the ganglion cell layer in a masked fashion. […] This control eye was not subjected to ischemia.
Statistically, the ganglion cell numbers were evaluated as follows: In contrast to the usual ANOVA where the ratio of the mean squares between the treatment groups and the error mean square is used in the F-statistic, the nested design applied here requested another approach. Apart from the factor medication, there were three other sources of variation in our example, (1) the rat, (2) the eye, and (3) the replications of cell counting within each eye. To test for the medication effect the mean square for rat within medication has to be used as denominator. The variability of the eye is then contained in both the numerator (with all contributions to the variance) and the denominator (with the contributions to the variance except that of the factor medication). Thus, the variability of the eye is eliminated in the end and the variance of the factor medication is assessed appropriately in the F-test. The used model was: cell counts=med rat (med) eye(med*rat).
In order to evaluate the therapeutic window of GBP-L as an antiischemic drug (Pulsinelli et al. 1997) its time-effect relationship was tested at 75 mg/kg given twice prior to or after the end of ischemia with an interval of 6 hours.
The dose dependence of the neuroprotective effect of GBP-L was established using 25 mg/kg, 50 mg/kg and 75 mg/kg (see FIG. 7) given twice three hours and nine hours after the end of ischemia.

[4] = test system: electrically evoked release of [^3H]-NA; assay: electrically evoked release of [^3H]-NA from human brain slices; format: cell-based; details: quasi-physiological release
From the text: (§1) Note that the deviations indicate confidence intervals (CI95), not standard errors. In this model, GBP and its lactam seem equipotent. GBP and GBP-L are ineffective on the quasi-physiological, electrically evoked release of [^3H]-NA from both rat and human brain slices (not shown).

[5] = test system: electrically evoked release of [^3H]-NA; assay: electrically evoked release of [^3H]-NA from rat brain slices; format: cell-based; details: quasi-physiological release
From the text: as §1

[6] = test system: potassium-evoked release of [^3H]-noradrenaline; details: rat neocortex slices; Freiman et al. 2001, FIG. 1.0; cited from earlier work
[7] = O2 replaced by N2, glucose by sucrose, 37° C., 3 μM PDC

| Structure (SMILES) | electrically evoked release of Glu (in words) [1] | electrically evoked release of Glu (in words) ([1]; listed as gabapentin lactam) | ischemia-induced [^3H]-Glu output (in words) [2, 7] | reduction of ischemia-induced [^3H]-Glu release (area from t=15 min) [2, 7] [%] | retinal gangliocytes survived compared with the respective control eye ([3]; 50 mg/kg i.p. at start of one-hour intraocular pressure increase and again 6 hours after, 14 days, NaCl group 17.4%) [%] | mortality in the 14 days after the test ([3]; 50 mg/kg i.p. twice, 10 rats) | time-effect relationship: neuroprotective action maintained after recirculation ([3]; 75 mg/kg given twice prior to or after the end of ischemia, interval 6 hours, another strain of rats) | slope of regression line of dose-effect relationship ([3]; 25, 50 and 75 mg/kg given twice, three and nine hours after the end of ischemia) | electrically evoked release of [^3H]-NA (in words) [4] | electrically evoked release of [^3H]-NA (in words) [5] | potassium-evoked release of [^3H]-noradrenaline (in words) [6] | diminution of ischemia-induced [^3H]-Glu efflux [2] [%] | neuroprotective effect / number of surviving neurons (in words) ([3]; 50 mg/kg i.p. immediately prior to ischemia and 6 hours after reperfusion, 14 days, listed as gabapentin) | rate of surviving neurons ([3]; 50 mg/kg i.p. twice, ganglion cell layer neurons, 14 days after ischemia, pure ischemia 17.5%) [%] |
| --- | --- | --- | --- | --- | --- | --- | --- | --- | --- | --- | --- | --- | --- | --- |
| O=C1CC2(CCCCC2)CN1 [GBP-L, 8-azaspiro[5,4]decan-9-one] | seems not to be influenced | not influenced; also recorded: unaffected | reduces the neurotoxic [^3H]-Glu output significantly | 42.5 | 35 | no animal died | maintained for more than three hours after recirculation | 0.41 | ineffective | ineffective | – | – | – | – |
| NCC1(CC(=O)O)CCCCC1 [GBP, gabapentin, reference compound] | – | – | – | – | – | – | – | – | ineffective | ineffective | inhibitory effects | 35.5 | no protective effect whatever | 17.5 |

From patent US6984659B2, “2-pyrrolidinone derivatives substituted at position 4 for reducing the extracellular glutamate level” (priority 1997, dated 2006)
